This is an account of results in PubChem BioAssay (NCI).

Values joined by “and” are separate entries in the source; they are usually repeats but may differ in a detail not shown here. Equal values may be shown once.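 Five concentrations, 48 hours, 96-well plates. Here, GI50 denotes the concentration required for 50% inhibition of growth. Definition used: TGI = concentration required for complete inhibition of growth.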 Where only a bound is given, the exact number is not on record here.

Among the test systems are LXFL 529 NSCLC; M19-MEL melanoma; NCI-H460 lung; OVCAR-8 ovarian; SK-MEL-2 melanoma; UACC-257 melanoma; UO-31 renal; EKVX NSCLC; MCF7 breast; NCI/ADR-RES ovarian.
Common to all, as to experiment: growth of human tumour cells (NCI), 48 h

For `c1nc2cscc2c2cscc12`, the TGI in the experiment on LXFL 529 NSCLC, in the experiment with M19-MEL melanoma, in the experiment on NCI-H460 lung, in the experiment with OVCAR-8 ovarian, with SK-MEL-2 melanoma and with UACC-257 melanoma was greater than 100 µM throughout. In the experiment on UO-31 renal, this compound displayed a TGI greater than 100 µM.
For `Cc1cccc(C)c1NC(=O)CCCC(=O)CC(=O)/C=C/c1ccccc1`, the TGI in the experiment on LXFL 529 NSCLC, in the experiment on M19-MEL melanoma, in the experiment on NCI-H460 lung, with OVCAR-8 ovarian, with SK-MEL-2 melanoma and in the experiment on UACC-257 melanoma was greater than 100 µM each time. The same compound came in with a TGI with UO-31 renal greater than 100 µM.
Turning to `COc1ccc(C2S/C(=C\c3cc(OC)c(OC)c(OC)c3)C(=O)N2NC(=O)Cc2ccccc2)cc1` (stereo not given), the TGI in the experiment with LXFL 529 NSCLC, with M19-MEL melanoma, in the experiment on NCI-H460 lung, with OVCAR-8 ovarian, in the experiment on SK-MEL-2 melanoma and in the experiment with UACC-257 melanoma was greater than 100 µM each time. In the experiment with UO-31 renal, this compound registered a TGI greater than 100 µM.
`N=C1c2nc3n(c2C(=O)c2nc4n(c21)CCCC4)CCCC3`: the GI50 with EKVX NSCLC is 44.7 µM; with MCF7 breast it was 1.36 µM; with NCI-H460 lung it was 1.59 µM; in the experiment on NCI/ADR-RES ovarian it was 35.6 µM; in the experiment with OVCAR-8 ovarian, 32.8 µM; with SK-MEL-2 melanoma it was 23.4 µM. Further, the figures for the GI50 in the experiment with UACC-257 melanoma and in the experiment with UO-31 renal were 1.67 µM and 4.03 µM, respectively. Also, the TGI in the experiment on EKVX NSCLC is greater than 100 µM; in the experiment with MCF7 breast it was 3.61 µM; in the experiment on NCI-H460 lung it was 3.54 µM; in the experiment on NCI/ADR-RES ovarian, greater than 100 µM; in the experiment on OVCAR-8 ovarian it was greater than 100 µM; with SK-MEL-2 melanoma it was greater than 65 µM. The TGI was found to be 4.81 µM with UACC-257 melanoma and 28.6 µM in the experiment with UO-31 renal.
As to `Cn1ccc2c(NCCN)c3c(c(NCCN)c21)C(=O)c1ccccc1C3=O`, the GI50 with EKVX NSCLC is 1.34 µM; in the experiment on MCF7 breast it was 0.442 µM; with NCI-H460 lung, 0.448 µM; with NCI/ADR-RES ovarian, 8.04 µM; in the experiment on OVCAR-8 ovarian, 2.84 µM; with SK-MEL-2 melanoma it was 2.33 µM. For the same compound, the GI50 in the experiment with UACC-257 melanoma is 10.2 µM; with UO-31 renal, 1.52 µM. The TGI in the experiment with EKVX NSCLC is 5.3 µM; in the experiment with MCF7 breast, 7.22 µM; in the experiment with NCI-H460 lung, 2.24 µM; with NCI/ADR-RES ovarian it was 26.7 µM; in the experiment on OVCAR-8 ovarian it was 13.4 µM; with SK-MEL-2 melanoma, 11.5 µM. For the same compound, the TGI with UACC-257 melanoma is greater than 27.7 µM; in the experiment with UO-31 renal, 5.76 µM.
In the case of `C=C1CC[C@@]2(C#N)[C@H]3[C@H](CC[C@@H]2C)[C@@H](C)C[C@@H](CC(C)(C)C#N)[C@H]13`, the GI50 with EKVX NSCLC was 1.12 µM; in the experiment on MCF7 breast, 0.785 µM; in the experiment with NCI-H460 lung it was 0.877 µM; with NCI/ADR-RES ovarian, 2.87 µM; with OVCAR-8 ovarian it was 0.785 µM; in the experiment on SK-MEL-2 melanoma it was 6.67 µM. The GI50 is 8.3 µM in the experiment on UACC-257 melanoma and 0.363 µM in the experiment on UO-31 renal. Also, the TGI with EKVX NSCLC was found to be 45.7 µM; in the experiment with MCF7 breast, 15.8 µM; in the experiment on NCI-H460 lung, 12.8 µM; with NCI/ADR-RES ovarian, 24.6 µM; in the experiment on OVCAR-8 ovarian, 33.7 µM; with SK-MEL-2 melanoma, 40.2 µM. Also, the TGI worked out at 56.4 µM with UACC-257 melanoma and 19.3 µM with UO-31 renal.
As to `Cc1ccccc1CN1CC2=C(CCN(Cc3ccccc3)C2=O)N2CCN=C12`, the TGI in the experiment on EKVX NSCLC is greater than 100 µM; in the experiment with MCF7 breast, greater than 100 µM; with NCI-H460 lung, greater than 100 µM; with NCI/ADR-RES ovarian, greater than 100 µM; with OVCAR-8 ovarian, greater than 100 µM; in the experiment on SK-MEL-2 melanoma it was greater than 81.6 µM. Further, the TGI in the experiment with UACC-257 melanoma and in the experiment with UO-31 renal was greater than 100 µM each time.
For `COc1cc2c(c(OC)c1OC)-c1ccc(SC)c(=O)cc1[C@@H](NC(=O)c1ccc(OC(C)=O)cc1)CC2`, the TGI with EKVX NSCLC was greater than 100 µM; with M19-MEL melanoma it was greater than 100 µM; in the experiment with NCI-H460 lung, 0.0206 µM; with OVCAR-8 ovarian it was 12.1 µM; with UACC-257 melanoma, 19.2 µM; in the experiment with UO-31 renal it was 73 µM.
For `COc1ccc(/C=C\c2cc(OC)c(OC)c(OC)c2)cc1OC(=O)C(N)CCC(=O)O` (stereo not given), the TGI is greater than 100 µM in the experiment with EKVX NSCLC; 67.3 µM with M19-MEL melanoma; greater than 100 µM in the experiment on MCF7 breast; 0.608 µM with NCI/ADR-RES ovarian; greater than 100 µM in the experiment on SK-MEL-2 melanoma; 22.8 µM in the experiment on UACC-257 melanoma. In addition, the GI50 in the experiment on MCF7 breast is 0.00503 µM; with NCI-H460 lung it was 0.00112 µM; in the experiment with NCI/ADR-RES ovarian, 0.000317 µM; in the experiment with OVCAR-8 ovarian it was 0.000112 µM; in the experiment with SK-MEL-2 melanoma it was 7.35e-05 µM; with UACC-257 melanoma, 0.000603 µM. The GI50 in the experiment with UO-31 renal was 0.000436 µM and < 0.0001 µM.
Turning to `c1cc2c(cc1C(N1CCNCC1)N1CCNCC1)OCO2`, the TGI in the experiment with EKVX NSCLC, in the experiment with MCF7 breast, with NCI-H460 lung, in the experiment with NCI/ADR-RES ovarian, in the experiment with OVCAR-8 ovarian and in the experiment with SK-MEL-2 melanoma was greater than 100 µM in each case. Moreover, the TGI with UACC-257 melanoma and with UO-31 renal was greater than 100 µM in each case.
As for `COc1c(C)c2c(c(O)c1C/C=C(\C)CCC(=O)OCCN1CCOCC1)C(=O)OC2`, the TGI with EKVX NSCLC, in the experiment with MCF7 breast, with NCI-H460 lung, in the experiment with NCI/ADR-RES ovarian, in the experiment with OVCAR-8 ovarian and in the experiment with SK-MEL-2 melanoma was greater than 100 µM each time. For the same compound, the TGI in the experiment with UACC-257 melanoma and in the experiment with UO-31 renal was greater than 100 µM in each case. The GI50 is 0.196 µM with MCF7 breast; 0.0823 µM with NCI-H460 lung; 0.471 µM in the experiment with NCI/ADR-RES ovarian; 0.464 µM in the experiment with OVCAR-8 ovarian; 33.6 µM in the experiment with SK-MEL-2 melanoma; 0.573 µM in the experiment on UACC-257 melanoma. Further, in the experiment on UO-31 renal, the GI50 was 0.599 µM.
With `COc1cc(Cl)cc(-c2nn(C(=O)NCCN3CCN(C)CC3)cc2-c2ccncc2)c1`, the GI50 with EKVX NSCLC is 0.971 µM; in the experiment with MCF7 breast, 29.4 µM; with NCI-H460 lung it was 21 µM; in the experiment on NCI/ADR-RES ovarian, 19.8 µM; with OVCAR-8 ovarian it was 2.94 µM; in the experiment on SK-MEL-2 melanoma, 19.3 µM. For the same compound, the GI50 is 20.5 µM in the experiment with UACC-257 melanoma and 11.6 µM in the experiment on UO-31 renal. Also, the TGI was 37.1 µM in the experiment on EKVX NSCLC; greater than 100 µM in the experiment with MCF7 breast; 60.4 µM with NCI-H460 lung; 88.5 µM with NCI/ADR-RES ovarian; greater than 100 µM with OVCAR-8 ovarian; 46 µM in the experiment with SK-MEL-2 melanoma. The TGI is greater than 100 µM in the experiment on UACC-257 melanoma and 62 µM with UO-31 renal.
